Tests used:
[1] = Taste modulation in applications (Table 3), malic/citric acid base; conditions: base malic acid 1000 ppm and citric acid 2000 ppm in water; 1 ppm, composition composed only of wogonin
[2] = Masking effect on sorbic acid, trained panel; design: species or system human; conditions: base sorbic acid 150 ppm in water, test sample 0.5 ppm
Text: (§1) Preparation of Test Samples: […], oroxylin A-7 glucouronide, wogonoside, baicalein, oroxylin A and wogonin were purchased commercially. S. baicalensis extract (“Extract”) and cabohydrase-treated S. baicalensis extract (“Treated Extract”) were obtained as above in Example 1.
(§2) Subsequently, all compounds and extracts were applied to different bases for evaluating their off-taste masking functions.
(§3) Testing Procedure: The masking effects on the off-tastes (bitterness, sourness, astringency, lingering and drying aftertaste, etc.) associated with various food components was evaluated by a group of 16 trained panelist. Each provided a rank of masking intensity using the intensity scales of 0 to 5, where 0 represents “no masking effect,” 1 represents “minimal masking intensity” and 5 represents “the most masking intensity.” The average of the reported making intensity is presented in the following examples.
A base solution of sorbic acid was prepared in water (150 ppm). […] The flavor profile of the sorbic acid solutions with compounds or extracts were further evaluated and is reported in the following: […]

[3] = Masking effect on citric acid, trained panel; design: species or system human; conditions: base citric acid 300 ppm in water, test sample 0.5 ppm
Text: as §1, §2, §3
A base solution of citric acid was prepared in water (300 ppm). […] The flavor profile of the citric acid solutions with compounds or extracts were further evaluated and is reported in the following: […]

[4] = Masking effect on pea protein, trained panel; design: species or system human; conditions: base TRUPRO pea protein 5% in water, test sample 0.5 ppm
Text: as §1, §2, §3
A base solution of TRUPRO® pea protein (Solae LLC) was prepared in water (5%). […] The flavor profile of the pea protein solutions with compounds or extracts were further evaluated and is reported in the following: […]

[5] = Masking effect on Acesulfame-K, trained panel; design: species or system human; conditions: base Acesulfame-K 300 ppm in water, test sample 0.5 ppm
Text: as §1, §2, §3
A base solution of Acesulfame-K was prepared in water (300 ppm). […] The flavor profile of the Acesulfame-K solutions with compounds or extracts were further evaluated and is reported in the following: […]

[6] = Masking effect on Reb M, trained panel; design: species or system human; conditions: base Reb M 200 ppm in water; for Masking Intensity: panel average, scale 0-5
Text: as §1, §2, §3
A base solution of Reb M was prepared in water (200 ppm). […] The flavor profile of the Reb M solutions with compounds or extracts were further evaluated and is reported in the following: […]

[7] = Masking effect on benzoic acid, trained panel; design: species or system human; conditions: base benzoic acid 250 ppm in water, test sample 0.5 ppm
Text: as §1, §2, §3
A base solution of benzoic acid was prepared in water (250 ppm). […] The flavor profile of the benzoic acid solutions with compounds or extracts was further evaluated and is reported in the following: […]

[8] = Masking effect on Reb A, trained panel; design: species or system human; conditions: base Reb A 200 ppm in water; for Masking Intensity: panel average, scale 0-5
Text: as §1, §2, §3
A base solution of Reb A was prepared in water (200 ppm). […] The flavor profile of the Reb A solutions with compounds or extracts were further evaluated and is reported in the following: […]

[9] = Taste modulating activity of the individual compounds; conditions: individual compounds, Example 1
Description: With bio-transformation, most baicalin was converted to baicalein; oroxylin A glucuronide was converted to oroxylin A; and wogonoside was converted to wogonin. The activity of the individual compounds was also analyzed for taste modulating activity.

COc1c(O)cc(O)c2c(=O)cc(-c3ccccc3)oc12 [Wogonin, 5,7-dihydroxy-8-methoxyflavone]
Functions [1]: Masked the sharp sourness, added mouthfeel | Flavor Profile [2]: Reduced astringency, sourness, and drying | Masking Intensity ([2]; panel average, scale 0-5): 5 | Flavor Profile [3]: Reduced tart taste, more pleasant | Masking Intensity ([3]; panel average, scale 0-5): 4 | Flavor Profile [4]: Reduced astringency and bitterness, less | Masking Intensity ([4]; panel average, scale 0-5): 5 | Flavor Profile [5]: Reduced bitterness and lingering aftertaste, | Masking Intensity ([5]; panel average, scale 0-5): 4 | Masking Intensity ([6]; test sample 0.01 ppm): 1 | Flavor Profile ([6]; test sample 0.1 ppm): Slightly reduced bitterness and lingering | Masking Intensity ([6]; test sample 0.1 ppm): 3 | Flavor Profile ([6]; test sample 0.5 ppm): Reduced bitterness and lingering aftertaste, | Masking Intensity ([6]; test sample 0.5 ppm): 5 | Flavor Profile ([6]; test sample 10 ppm): Slightly reduced lingering aftertaste, very | Masking Intensity ([6]; test sample 10 ppm): 2 | Flavor Profile ([6]; test sample 50 ppm): Slightly reduced lingering aftertaste, | Masking Intensity ([6]; test sample 50 ppm): 1 | Flavor Profile [7]: Reduced astringency, sourness, and drying | Masking Intensity ([7]; panel average, scale 0-5): 5 | Masking Intensity ([8]; test sample 0.001 ppm): 1 | Flavor Profile ([8]; test sample 0.01 ppm): Slightly reduced astringency, licorice flavor | Masking Intensity ([8]; test sample 0.01 ppm): 2 | Masking Intensity ([8]; test sample 0.1 ppm): 3 | Masking Intensity ([8]; test sample 0.5 ppm): 4 | Masking Intensity ([8]; test sample 1 ppm): 5 | Masking Intensity ([8]; test sample 10 ppm): 3 | Masking Intensity ([8]; test sample 50 ppm): 2 | taste modulating activity [9]: more active

— patent publication US20250241347A1, “COMPOSITIONS AND METHODS FOR TASTE MODULATION” (INTERNATIONAL FLAVORS & FRAGRANCES INC., priority 2019, published 2025)
